This note sets out measurements from PMC9298916, “The Discovery and Structure‐Activity Evaluation of (+)‐Floyocidin B and Synthetic Analogs” (Chemmedchem, 2021).

Structures are written as SMILES. ≈ marks a conversion by molar mass, not a printed value. Where only a bound is given, the exact number is not on record here.

Data set [1] in a line: Microsomal stability, mouse. Format: in vitro ADME. Particulars: mouse, pooled liver microsomes, pH 7.4, mouse liver microsomes 0.5 mg/mL, 1 µM compound; for microsomal CLint at 1 µM: read-out: Microsomal stability CLint, Mouse; for half-life at 1 µM: read-out: Microsomal stability t1/2, Mouse. The procedure:
(§1) 2.4. Assay descriptions for the profiling of all four stereoisomers of (+)-floyocidin B and (−)-avicennone C,1 the avicennone C-floyocidin B hybrids 35, ent-35, 36 and ent-36 as well as the natural product (+)-floyocidin A. […]
(§2) Pooled liver microsomes are purchased. Microsomes are stored at –80 °C prior to use. Microsomes (final protein concentration 0.5 mg/mL), 0.1 M phosphate buffer pH 7.4, and test compound (final substrate concentration 1 µM; final DMSO concentration 0.25%) are preincubated at 37 °C prior to the addition of NADPH (final concentration 1 mM) to initiate the reaction. A minus cofactor control i ncubation is included for each compound tested where 0.1 M phosphate buffer pH 7.4 is added instead of NADPH. Two control compounds are included. All incubations are performed singularly for each test compound. Each compound is incubate d for 0, 5, 15, 30, and 45 min. The control is incubated for 45 min only. The reactions are stopped by transferring incubate into acetonitrile at the appropriat e time points, in a 1:3 ratio. The termination plates are centrifuged at 3,000 rpm for 20 min at 4 °C to precipitate the protein.
(§3) From a plot of ln peak area ratio (compound peak area/internal standard peak area) against time, the gradient of the line is determined. Subsequently, half -life and intrinsic clearance are calculated using the equations below:
(§4) Elimination rate constant (k) = (- gradient)
(§5) Intrinsic clearance (CL )(µL/min/mg protein) = V x 0.693 […]
(§6) where V = Incubation volume (µL)/Microsomal protein (mg)
(§7) Relevant control compounds are assessed, ensuring intrinsic clearance values fall within the specified limits (if available). […]

Another data set has as its system P. aeruginosa ATCC27853. The data set can be described thus: Micro-broth dilution growth inhibition, P. aeruginosa. The class given is cell-based. The note with it: Pseudomonas aeruginosa, 18 h.
A further data set can be described thus: physchem. The class given is physicochemical. Particulars: pH 7.4, Log D pH 7.4. The protocol:
2.4. Assay descriptions for the profiling of all four stereoisomers of (+)-floyocidin B and (−)-avicennone C,1 the avicennone C-floyocidin B hybrids 35, ent-35, 36 and ent-36 as well as the natural product (+)-floyocidin A.
Determination of logD 7.4
LogD values at pH 7.4 were determined by a standardized HPLC method derived from by Genieser et al.8 The calculation of the logD value for measured compounds is performed by comparison of the retention times with standard compounds of known distribution coefficients between 1 -octanol and water at pH 7.4. […]
8 Krass, J. D., Jastorff, B., and Genieser, H.-G. Anal. Chem. 1997, 69, 2575–2581. […]

For the next data set, the system named is HepG2 cells. Put plainly: Cytotoxicity on HepG2 cells (CellTiterGlo). The class given is cell-based. Particulars: 40 h. The protocol:
(§8) Cytotoxicity on THP1 and HepG2 cells
(§9) After 4 hours of HepG2 cell line (provided by ATCC) plating at 2.500 cells /well in 384-w plates, compounds were added to the cells. After an incubation at 37 °C for 40 h, the CellTiterGlo assay (provided by Promega) was performed.
(§10) Luminescence measurement is related to the cell viability. Compound activity is determined by using the control wells with no treatment as control (100% of growth). The assay was performed identically with THP1 cells. All incubations were […]
For orientation: Cellular ATP, detected with luciferase, serves as a proxy for viable cell number.

The next data set relates to THP1 cells. The data set can be described thus: Cytotoxicity on THP1 cells (CellTiterGlo). Particulars: THP1 cells; 40 h. Format: cell-based. The procedure: as §8, §9, §10
Data set [2] in a line: Cellular permeability assay utilizing Caco2 cell line. Particulars: human.
The test system of another data set is Caco-2 cells. The data set is described as above. Particulars: 10 µM, 120 min.
For data set [3], the system named is M. catarrhalis ATCC25238I. Put plainly: Micro-broth dilution growth inhibition, M. catarrhalis. Particulars: Moraxella catarrhalis, ATCC25238I, read-out: MIC. The class given is cell-based.
In a further data set the test system is M. tuberculosis H37Rv. Put plainly: Growth inhibition, M. tuberculosis H37Rv (Middlebrook 7H9, CellTiter-Blue). Format: cell-based. The note with it: Mycobacterium tuberculosis, 144 h; M. tuberculosis H37Rv (Mtb); 6 days; read-out: MIC. A general note: The colour change of resazurin is a common sign of viable cells or microbes.
In the next data set the test system is E. coli ATCC25922. The data set can be described thus: Micro-broth dilution growth inhibition, E. coli (CAMH). The class given is cell-based. Particulars: Escherichia coli, 18 h. For orientation: In broth dilution the organism is exposed to a series of concentrations in liquid medium.
A further data set deals with E. coli ATCC25922 MHC. The data set can be described thus: Micro-broth dilution growth inhibition, E. coli in CAMH with 44 mM sodium bicarbonate (MHC). The class given is cell-based. Particulars: Escherichia coli, ATCC25922, 18 h, E. coli ATCC25922 MHC (CAMH + 44 mM sodium bicarbonate), read-out: MIC.
A further data set deals with C. albicans FH2173. The data set can be described thus: Micro-broth dilution growth inhibition, C. albicans (ATP quantification). Format: cell-based. Particulars: Candida albicans, FH2173, 48 h, read-out: MIC.
A short description of data set [4]: Microsomal stability, human. The class given is in vitro ADME. Particulars: human, pooled liver microsomes, pH 7.4, human liver microsomes 0.5 mg/mL, 1 µM compound; for half-life at 1 µM: read-out: Microsomal stability t1/2, Human. The protocol: as §1, §2, §3, §4, §5, §6, §7
For the next data set, the system named is S. aureus ATCC25923. The data set can be described thus: Micro-broth dilution growth inhibition, S. aureus. The note with it: Staphylococcus aureus, 18 h. Format: cell-based.
[5] abbreviates: A2B in the presence of elacridar.

As to `CCC/C=C/c1cc2c(cn1)[C@@H](O)[C@H]1O[C@@]1(CC=C(C)C)C2=O` [compound 4, (1aR,2R,7aR)‐2‐Hydroxy‐7 a‐(3‐methylbut‐2‐en‐1‐yl)‐5‐((E)‐pent‐1‐en‐1‐yl)‐1 a,7 a‐dihydrooxireno[2,3‐g]isoquinolin‐7(2H)‐one], the microsomal CLint at 1 µM turned out to be 349 µL/min/mg in data set [1] and 72.7 µL/min/mg in [4]. Moreover, the half-life at 1 µM in [1] came to 3.97 min; in [4] it was 19.1 min. Besides, the MIC is more than 128 µg/mL in the data set with P. aeruginosa ATCC27853; 16 µg/mL (≈ 51.1 µM) in data set [3]; 9.4 µg/mL (≈ 30 µM) with M. tuberculosis H37Rv; more than 128 µg/mL with E. coli ATCC25922; more than 128 µg/mL in the data set with E. coli ATCC25922 MHC; more than 128 µg/mL in the data set on C. albicans FH2173. The same compound returned an MIC against S. aureus ATCC25923 of more than 128 µg/mL. Further, the chromatographic logD in the data set “physchem” stood at 4.01. Besides, in the data set on HepG2 cells, the “Cytotoxicity TC50 HepG2” value was found to be 4.5 µM. The “Cytotoxicity TC50 THP1” value in the data set with THP1 cells turned out to be 5.84 µM. Moreover, in [2] (Caco-2, Caco‐2 permeability Papp +Elacridar, A2B in the presence of elacridar), the apparent permeability coefficient (Papp) at 120 min, 10 µM amounted to 5.62 ×10⁻⁶ cm/s. This compound returned an apical-to-basolateral permeability (Papp A→B) at 120 min, 10 µM in data set [2] (Caco-2, Caco‐2 permeability Papp A2B, A2B) of 4.11 ×10⁻⁶ cm/s. Further, in the data set on Caco-2 cells (setting [5]), the “Caco‐2 permeability recovery +Elacridar” value is given as 14.2%. In the data set on Caco-2 cells (A2B), the “Caco‐2 permeability recovery A2B” value stood at 10.1%.

For the compound `CCCC=Cc1ccc2c(c1)C(=O)C1(CC=C(C)C)OC1C2O` (stereo not drawn) [compound 35], the microsomal CLint at 1 µM worked out at 1040 µL/min/mg in data set [1] and 45.5 µL/min/mg in [4]. Besides, the half-life at 1 µM in data set [1] was determined as 1.33 min; in data set [4] it was 30.5 min. The minimum inhibitory concentration (MIC) is more than 128 µg/mL with P. aeruginosa ATCC27853; 64 µg/mL (≈ 205 µM) in data set [3]; 9.4 µg/mL (≈ 30.1 µM) with M. tuberculosis H37Rv; more than 128 µg/mL in the data set on E. coli ATCC25922; more than 128 µg/mL with E. coli ATCC25922 MHC; more than 128 µg/mL with C. albicans FH2173. The compound also had an MIC with S. aureus ATCC25923 of more than 128 µg/mL. Also, the chromatographic logD in “physchem” is 4.7. In addition, in the data set with HepG2 cells, the “Cytotoxicity TC50 HepG2” value was found to be 9.39 µM. Also, the “Cytotoxicity TC50 THP1” value in the data set on THP1 cells amounted to 12.9 µM. The “Caco‐2 permeability Papp +Elacridar” value in the data set with Caco-2 cells (setting [5]) is 181 10^−7 cm s^−1. Besides, in the data set with Caco-2 cells (setting [5]), the “Caco‐2 permeability recovery +Elacridar” value is 29.6%. Besides, the “Caco‐2 permeability Papp A2B” value in the data set with Caco-2 cells (A2B) is listed as 135 10^−7 cm s^−1. The “Caco‐2 permeability recovery A2B” value in the data set with Caco-2 cells (A2B) came out at 76.0%.

What is called microsomal CLint is the capacity of the preparation to metabolise the compound, expressed as a volume cleared per time. One may read the MIC as the lowest concentration found to suppress growth. As a reminder, the chromatographic logD is a lipophilicity value derived from retention on a column. A higher chromatographic logD goes with higher lipophilicity. As usually defined, the Papp is the rate of passage across a membrane or cell layer, normalised by area and donor concentration. By Papp A→B is commonly meant how fast a substance crosses the layer from the apical side.
